From patent US7351700B2, “Aminomethylpyrimidines as allosteric enhancers of the GABAB receptors” (Hoffmann-La Roche Inc., priority 2004, dated 2008)

Experiments:
[1] = PO, cited from earlier work
[2] = rats; cited from earlier work
human GABABR1aR2a = biological target: T1, human GABABR1aR2a (Homo sapiens, UniProt O75899+Q9UBS5); test: Intracellular Ca2+ mobilization assay (FLIPR) in CHO-GABABR1aR2a-Gα16 cell; type: cell-based; conditions: for GABA shift Log [EC50(GABA + 10 μM cp)/EC50(GABA alone)]: 10 μM enhancer applied 15 min before GABA (0.0003-30 μM); for Emax: enhancer 0.001-30 μM in presence of 10 nM GABA (EC10), normalized to 10 μM GABA = 100%, 10 nM GABA = 0%, read-out: Emax (%) at 10 nM GABA alone = 0% 10 μM GABA alone = 100%; for EC50: enhancer concentration-response in presence of 10 nM GABA
T1 construct: expressed in transfected cells
T1 sequence (Q9UBS5 15-961 limits assumed): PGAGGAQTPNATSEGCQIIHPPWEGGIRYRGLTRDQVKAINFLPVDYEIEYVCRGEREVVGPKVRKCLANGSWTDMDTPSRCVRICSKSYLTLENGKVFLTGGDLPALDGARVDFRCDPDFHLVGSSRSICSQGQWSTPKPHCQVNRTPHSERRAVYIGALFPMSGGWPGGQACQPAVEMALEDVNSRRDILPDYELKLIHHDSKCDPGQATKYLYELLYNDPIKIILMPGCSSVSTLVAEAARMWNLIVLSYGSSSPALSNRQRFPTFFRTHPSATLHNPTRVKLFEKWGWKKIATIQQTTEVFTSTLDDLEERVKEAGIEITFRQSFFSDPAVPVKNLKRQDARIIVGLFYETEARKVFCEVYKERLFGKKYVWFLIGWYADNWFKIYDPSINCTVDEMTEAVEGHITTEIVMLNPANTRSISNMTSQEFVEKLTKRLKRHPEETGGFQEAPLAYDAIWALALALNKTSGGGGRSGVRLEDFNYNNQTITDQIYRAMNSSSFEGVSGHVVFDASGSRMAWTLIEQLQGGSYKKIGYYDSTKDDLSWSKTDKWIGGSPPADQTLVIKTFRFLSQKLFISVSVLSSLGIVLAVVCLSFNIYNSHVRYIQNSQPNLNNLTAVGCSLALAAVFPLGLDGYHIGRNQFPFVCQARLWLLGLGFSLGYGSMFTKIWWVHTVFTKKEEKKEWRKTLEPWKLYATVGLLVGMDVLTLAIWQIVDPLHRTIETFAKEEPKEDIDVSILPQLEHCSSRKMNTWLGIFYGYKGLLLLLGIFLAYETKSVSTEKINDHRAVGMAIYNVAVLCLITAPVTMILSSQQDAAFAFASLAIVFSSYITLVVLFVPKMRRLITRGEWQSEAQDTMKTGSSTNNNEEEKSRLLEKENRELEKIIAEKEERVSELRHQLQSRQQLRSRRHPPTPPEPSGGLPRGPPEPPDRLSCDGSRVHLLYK
T1 sequence (O75899 42-941): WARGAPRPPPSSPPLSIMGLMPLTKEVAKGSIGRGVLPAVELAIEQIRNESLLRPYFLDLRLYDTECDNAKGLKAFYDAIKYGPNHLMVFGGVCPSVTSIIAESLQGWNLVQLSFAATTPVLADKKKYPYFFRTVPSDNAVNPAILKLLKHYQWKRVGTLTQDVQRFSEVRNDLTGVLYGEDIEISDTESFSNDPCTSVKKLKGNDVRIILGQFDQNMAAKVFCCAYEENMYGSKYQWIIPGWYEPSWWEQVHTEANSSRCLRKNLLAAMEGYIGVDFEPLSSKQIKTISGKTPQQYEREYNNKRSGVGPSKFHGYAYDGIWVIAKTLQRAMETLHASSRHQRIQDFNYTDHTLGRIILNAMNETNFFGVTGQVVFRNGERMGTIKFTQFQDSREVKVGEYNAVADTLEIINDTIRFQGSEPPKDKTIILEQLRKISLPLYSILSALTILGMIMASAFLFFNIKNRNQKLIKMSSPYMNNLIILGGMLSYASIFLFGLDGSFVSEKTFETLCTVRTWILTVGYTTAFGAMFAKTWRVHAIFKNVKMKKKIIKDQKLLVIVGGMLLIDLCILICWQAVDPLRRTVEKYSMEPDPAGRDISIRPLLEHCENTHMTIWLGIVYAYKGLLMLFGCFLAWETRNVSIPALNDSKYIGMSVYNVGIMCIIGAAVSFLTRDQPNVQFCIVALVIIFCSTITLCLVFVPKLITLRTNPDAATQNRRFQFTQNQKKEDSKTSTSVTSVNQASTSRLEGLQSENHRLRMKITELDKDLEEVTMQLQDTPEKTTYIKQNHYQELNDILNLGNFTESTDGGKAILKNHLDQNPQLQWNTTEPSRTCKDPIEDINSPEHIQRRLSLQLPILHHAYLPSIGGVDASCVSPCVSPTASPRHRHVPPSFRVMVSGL
Method: Intracellular Ca^2+ Mobilization Assay
The Chinese Hamster Ovary (CHO) cells stably expressing human GABABR1aR^2a and Gα16 were seeded at 5×10^4 cells/well in the poly-D-lysine treated, 96-well, black/clear-bottomed plates (BD Biosciences, Palo Alto, Calif.). 24 h later, the cells were loaded for 90 min at 37° C. with 4 μM Flou-4 acetoxymethyl ester (Catalog No. F-14202, Molecular Probes, Eugene, Oreg.) in loading buffer (1×HBSS, 20 mM HEPES, 2.5 mM Probenecid). Hanks' Balanced Salt Solution (HBSS) (10×) (catalog No. 14065-049) and HEPES (1M) (catalog No. 15630-056) were purchased from Invitrogen, Carlsbad, Calif. Probenecid (250 mM) (catalog No. P8761) was from Sigma, Buchs, Switzerland. The cells were washed five times with loading buffer to remove excess dye and intracellular calcium mobilization, [Ca^2+ ]i were measured using a Fluorometric Imaging Plate Reader (FLIPR, Molecular Devices, Menlo Park, Calif.) as described previously (Porter et al., Br. J. Pharmacol., 128, 13-20, 1999). The enhancers were applied 15 min before the application of the GABA. For GABA shift assay, concentration-response curves of GABA (0.0003-30 μM) were determined in the absence and presence of 10 μM enhancer. The GABA-shift is defined as Log [EC50 (GABA+10 μM enhancer)/EC50 (GABA alone)]. The % maximum enhancing effect (% Emax) potency (EC50 value) of each enhancer was determined from concentration-response curve of the enhancer (0.001-30 μM) in the presence of 10 nM (GABA) (EC10). Responses were measured as peak increase in fluorescence minus basal, normalized to the maximal stimulatory effect induced by 10 μM GABA alone (considered 100%) and 10 nM GABA alone (considered 0%). The data were fitted with the equation Y=100+(Max −100)/(1+(EC50/[drug])^n) where Max is the maximum effect, EC50 the concentration eliciting a half-maximum effect and n the Hill slope.

[3] = passive avoidance behavioral test in mice and rats; cited from earlier work
[4] = elevated plus maze (rat), elevated zero maze (mice and rats), stress-induced hyperthermia (mice); cited from earlier work

| GABA shift Log [EC50(GABA + 10 μM cp)/EC50(GABA alone)] (human GABABR1aR2a) | Emax (human GABABR1aR2a) | EC50 (human GABABR1aR2a) | Structure (SMILES) | further results |
| --- | --- | --- | --- | --- |
| – | – | – | NCC(CC(=O)O)c1ccc(Cl)cc1 (stereo not drawn) [Baclofen, β-chlorophenyl GABA] | side effects (spontaneous locomotor activity, rotarod, body temperature, traction test) ([1]; 2.5-15 mg/kg): showed these side effects |
| – | – | – | CC(C)(CO)Cc1cc(C(C)(C)C)c(O)c(C(C)(C)C)c1 [CGP7930, 2,6-di-tert-butyl-4-(3-hydroxy-2,2-dimethyl-propyl)-phenol] | decreasing cocaine self-administration [2]: effective |
| −0.75 | 46% | 2.2 µM | CCCCCCSc1nc(C)cc(CN2CCOCC2)n1 [Example 1, 4-(2-Hexylsulfanyl-6-methyl-pyrimidin-4-ylmethyl)-morpholine] | – |
| −0.55 | 52% | 1.7 µM | CCCCCSc1nc(C)cc(CN2CCOCC2)n1 [Example 2, 4-(6-Methyl-2-pentylsulfanyl-pyrimidin-4-ylmethyl)-morpholine] | – |
| −0.60 | 41% | 4.2 µM | Cc1cc(CN2CCOCC2)nc(SCc2ccc(C(C)(C)C)cc2)n1 [Example 11, 4-[2-(4-tert-Butyl-benzylsulfanyl)-6-methyl-pyrimidin-4-ylmethyl]-morpholine] | – |
| −0.50 | 48% | 8.5 µM | CCCCCCSc1nc(C)cc(CN2CCCC2)n1 [Example 16, 2-Hexylsulfanyl-4-methyl-6-pyrrolidin-1-ylmethyl-pyrimidine] | – |
| −0.69 | 60% | 9.6 µM | CCCCCCSc1nc(C)cc(CN2CCCCC2C)n1 (stereo not drawn) [Example 31, 2-Hexylsulfanyl-4-methyl-6-(2-methyl-piperidin-1-ylmethyl)-pyrimidine] | – |
| −0.76 | 74.2% | 8.2 µM | CCCCCCSc1nc(C)cc(CN2C(C)CCCC2C)n1 (stereo not drawn) [Example 37, 4-(2,6-Dimethyl-piperidin-1-ylmethyl)-2-hexylsulfanyl-6-methyl-pyrimidine] | – |
| −0.71 | 61% | 6.3 µM | CCCCCCSc1nc(C)cc(CN2[C@H](C)CCC[C@@H]2C)n1 [Example 38, 4-(cis-2,6-Dimethyl-piperidin-1-ylmethyl)-2-hexylsulfanyl-6-methyl-pyrimidine] | – |
| −0.48 | 62% | 6.4 µM | CCCCCCSc1nc(CN2CCOCC2)cc(C(F)(F)F)n1 [Example 39, 4-(2-Hexylsulfanyl-6-trifluoromethyl-pyrimidin-4-ylmethyl)-morpholine] | – |
| −0.86 | 60% | 4.1 µM | CCCCCCSc1nc(CC)cc(CN2CCOCC2)n1 [Example 41, 4-(2-Hexylsulfanyl-6-ethyl-pyrimidin-4-ylmethyl)-morpholine] | – |
| −0.70 | 49% | 4.4 µM | CCCCCCSc1nc(C)cc(C(C)N2CCOCC2)n1 (stereo not drawn) [Example 43, 4-[1-(2-Hexylsulfanyl-6-methyl-pyrimidin-4-yl)-ethyl]-morpholine] | – |
| – | – | – | CSc1nc(NC2CCCC2)c([N+](=O)[O-])c(NC2CCCC2)n1 [GS39783, N,N_-dicyclopentyl-2-methylsulfanyl-5-nitro-pyrimidine-4,6-diamine] | effect on spontaneous locomotor activity, rotarod, body temperature and traction test ([1]; 0.1-200 mg/kg): no effect; effect on cognition performance [3]: did not have any effect; anxiolytic-like effects [4]: exhibited anxiolytic-like effects; decreasing cocaine self-administration [2]: effective |

| Structure (SMILES) | GABA shift Log [EC50(GABA + 10 μM cp)/EC50(GABA alone)] (human GABABR1aR2a) | Emax (human GABABR1aR2a) | EC50 (human GABABR1aR2a) | further results |
| --- | --- | --- | --- | --- |
| CCCCCCSc1nc(C)cc(CN2C[C@@H]3C[C@@H](C2)c2cccc(=O)n2C3)n1 [Example 35, (1S,5S)-3-(2-Hexylsulfanyl-6-methyl-pyrimidin-4-ylmethyl)-1,2,3,4,5,6-hexahydro-1,5-methano-pyrido [1,2-a][1,5]diazocin-8-one] | −0.92 | 62% | 1.8 µM | – |
